Laboratory results taken from US20030143645A1, “Quinone reductase 2 and aldehyde dehydrogenase as therapeutic targets” (priority 2001, published 2003).

What was measured:
[1] = tested on: purine binding proteome (hALDH1 and hQR2); test: ATP affinity array / ATP-Sepharose displacement elution of RBC purine binding proteome; design: species or system human
Method: ATP-affinity array chromatography. In whole mouse experiments, the animal (except for its tail, feet, skin and intestines) was frozen in liquid N2 and blended in buffer A containing 50 mM Hepes, pH 7.5, 50 mM NaCl, 10 mM MgCl2, 0.1% NONIDET- P40, 1 mM dithiothreitol, 1 μg/ml leupeptin, 100 μg/ml pefabloc and 10 μg/ml aprotinin. Mouse lysate was clarified by centrifugation for 1 hr at 100,000×g. For infected and non-infected RBC's˜1.5×10^9 cells were mixed with an equal volume of 2×buffer A, rocked for 30 min at 4° C., and clarified by centrifugation for 1 hr at 100,000×g. Supernatants were dialyzed overnight against 50 mM Hepes, pH 7.5, 50 mM NaCl, 10 mM MgCl2 and 1 mM dithiothreitol. […] Proteins were resolved by 12% SDS-PAGE and visualized by staining either with Coomassie brilliant Blue R-250 or silver nitrate. Alternatively, proteins were transferred to membrane GeneMate (Kaysville, Utah) in transfer buffer (25 mM Tris, 200 mM glycine, 20% methanol, and 0.01% SDS) for mixed peptide sequencing (Damer et al, J. Biol. Chem. 273:24396 (1998)). hALDH 1 and hQR2 purification and activity assays. Fresh human red blood cells (RBC) were obtained from Valley Biomedical, washed twice with PBS, and lysed in buffer B (0.1% Triton X, 50 mM Tris pH 7.5, 125 mM NaCl, 1 μg/mL aprotonin, 1 μg/mL pepstatin and 10 μg/mL PEFABLOC). Lysates were centrifuged twice at 125,000×g for 1 hr at 4° C. Cleared supernatant was filtered through a […] filter and loaded onto PQ-Sepharose. Pure hALDH was eluted with 5 mM NADH and pure hQR2 with 5 mM NMeN. The eluants were dialyzed overnight at 4° C. against 25 mM Tris pH 8.0 and 1 mM DTT. hALDHl was assayed as described in Table 2. Purified hQR2 was assayed at 22° C. in 100 μM N-methyldihydronicotinamide, 30 μM menadione, 0.1% Triton X-100, 50 mM Tris pH 8.5, 100 μM dicoumarol (unless stated otherwise). N-methyldihydronicotinamide was synthesized (Ortiz-Maldonado et al, Biochemistry 38(50):16636-16647 (1999)) and stored in 100 mM Tris-sulfate pH 8.0.
An ATP affinity array was charged with RBC and P. falciparum (blood stage) infected RBC extract.
chromatography. P. falciparum-infected or non-infected RBCs were lysed by mixing with an equal volume of 2×buffer A and rocking for 30 min at 4° C. 1×buffer A: 50 mM Hepes, pH 7.5, 50 mM NaCl, 10 mM MgCl2, 0.1% NONIDET-P40, 1 mM dithiothreitol, 1 μg/ml leupeptin, 100 μg/ml pefabloc and 1 μg/ml aprotinin. […] Proteins were resolved by 12% SDS-PAGE and visualized by staining with Coomassie brilliant blue R-250 or silver nitrate. Alternatively, proteins were transferred to PVM membrane (Kaysville, Utah) for mixed peptide sequencing (Damer et al, J. Biol. Chem. 273(38):24396-24405 (1998)).
To better understand the mechanism of the quinolines, an attempt was made to identify all quinoline interacting proteins in a cell or animal lysate. To achieve this, a functional proteomics approach was used as outlined in FIG. 7. In this strategy, three different, yet complementary approaches were conducted to identify and validate targets of the quinolines. In step one, termed displacement affinity chromatography, a specific sub-proteome from a cell is captured on an affinity matrix by virtue of its interaction with an immobilized ligand (FIG. 7, Step 1). The sup-proteome is captured after application of saturating amounts of cell lysate and extensive washing of the resin. The compounds of interest (in this case, the quinolines) are then applied to the matrix in parallel and allowed to interact with the bound proteome. […] In the second step, affinity matrices were created by directly linking the quinoline drugs to Sepharose, and after application of cell lysates, all proteins that specifically eluted from these matrices in the presence of drug were identified (FIG. 7 Step 2).

[2] = target: QR1 (Oryctolagus cuniculus, UniProt U3KNP2); test: QR1 activity assay (Example 2); assay type: biochemical, rabbit; design: QR1 was purified from rabbit liver as previously described; from tissue; host or cells: rabbit liver
Sequence of QR1 (U3KNP2 1-274): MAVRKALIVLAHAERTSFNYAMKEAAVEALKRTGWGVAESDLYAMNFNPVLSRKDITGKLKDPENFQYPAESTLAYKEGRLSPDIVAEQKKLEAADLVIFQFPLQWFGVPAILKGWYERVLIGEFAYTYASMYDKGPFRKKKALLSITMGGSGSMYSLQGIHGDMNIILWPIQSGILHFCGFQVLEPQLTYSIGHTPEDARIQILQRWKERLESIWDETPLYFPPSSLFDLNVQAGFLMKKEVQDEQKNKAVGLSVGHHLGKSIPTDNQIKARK
Method: Purification of native ALDH1, QR2 and QR1. RBC extract was prepared as described above and applied to PQ-Sepharose equilibrated in buffer A. ALDH1 and QR2 were obtained by eluting the column with 5 mM b-NAD^+ and NMeH respectively.
ALDH1, QR2 and QR1 activity assays. […] Reaction products were separated with a gradient of acetonitrile in 10 mM triethylamine acetic acid. […] QR1 IC50 values were calculated using GraphPad Prism.

proteins eluted from ATP affinity array (hALDH1 and hQR2) ([1]; non-infected red cells, drug at [mM]): selectively eluted two proteins
IC50 [2]: > 1000 µM
effect on QR1 activity [2]: not affected
SMILES: CCN(CC)CCCC(C)Nc1ccnc2cc(Cl)ccc12 (stereo not shown) [CQ, chloroquine]
proteins eluted from ATP-Sepharose (ALDH1 55 kDa, QR2 26 kDa) ([1]; RBC extract, 5 mM drug (Example 2)): selectively eluted proteins of 55 and 26 kDa
